Bridge positions count the residues as written; N and C are the ends. Square brackets hold non-standard residues; d marks the D form. Peptide text beside a SMILES is read from it. * marks the point of attachment. Ileψ(thiazoline)Cys = CC[C@H](C)[C@H](N)C1=N[C@H](C(=O)*)CS1; dOrn = NCCC[C@@H](N)C(=O)O
System: SARS-CoV-2
Test: microbe, parasite or virus in culture
Conditions: Severe acute respiratory syndrome coronavirus 2, Vero C1008, 48 h

Row | Compound | IC50 [µM] | IC50 (read-out: pIC50 (converted)) [µM]
1 | NCCC(=O)N[C@@H](Cc1c[nH]cn1)C(=O)O [CARNOSINE] | > 20 | > 20
2 | [O-][n+]1ccccc1S [PYRITHIONE] | > 20 | > 20
3 | Cc1c(C)c2c(c(C)c1O)CCC(C)(COc1ccc(CC3SC(=O)NC3=O)cc1)O2 (stereo not drawn) [TROGLITAZONE] | > 20 | > 20
4 | CNc1c2c(nn1C)CCCC2 [TETRYDAMINE] | > 20 | > 20
5 | CN(C)CCN(Cc1cccs1)c1ccccn1 | > 20 | > 20
6 | O[C@@H](CNC[C@H](O)[C@H]1CCc2cc(F)ccc2O1)[C@@H]1CCc2cc(F)ccc2O1 | > 20 | > 20
7 | Cc1cnc(NC(=O)C2=C(O)c3ccccc3S(=O)(=O)N2C)s1 [MELOXICAM] | > 20 | > 20
8 | CCc1nc2c(C)nc(C)cc2n1-c1ccc(CCNC(=O)NS(=O)(=O)c2ccc(C)cc2)cc1 [GRAPIPRANT] | > 20 | > 20
9 | CC(C)(C)c1cc(NC(=O)Nc2ccc(-c3cn4c(n3)sc3cc(OCCN5CCOCC5)ccc34)cc2)no1 [QUIZARTINIB] | > 20 | > 20
10 | CCCCCCCC(=O)O [OCTANOIC ACID] | > 20 | > 20
11 | CCCCOC(=O)NS(=O)(=O)c1sc(CC(C)C)cc1-c1ccc(Cn2ccnc2)cc1 [BULOXIBUTID] | > 20 | > 20
12 | CC(C)OC(=O)[C@H](C)NP(=O)(OC[C@H]1O[C@@H](n2ccc(=O)[nH]c2=O)[C@](C)(F)[C@@H]1O)Oc1ccccc1 (stereo partly drawn) | > 20 | > 20
13 | COc1cc2c(cc1O)[C@@H]1Cc3ccc(OC)c(O)c3CN1CC2 [SCOULERINE] | > 20 | > 20
14 | COc1cc(/C=C2\CCC/C(=C\c3ccc(O)c(OC)c3)C2=O)ccc1O [CYCLOVALONE] | > 20 | > 20
15 | OCC(O)COc1ccc(Cl)cc1 (stereo not drawn) | > 20 | > 20
16 | Cc1nnnn1N=Cc1ccc(O)c(C(c2ccc(O)cc2)c2cc(C=Nn3nnnc3C)ccc2O)c1 (stereo not drawn) [VP-14637] | > 20 | > 20
17 | CCN1CCN(C(=O)N[C@@H](C(=O)N[C@@H]2C(=O)N3C(C(=O)O)=C(CSc4nnnn4C)CS[C@H]23)c2ccc(O)cc2)C(=O)C1=O [CEFOPERAZONE] | > 20 | > 20

Row | Compound | IC50 [µM] | IC50 (read-out: pIC50 (converted)) [µM]
18 | Cc1ccnc2c1CCCC2C(N)=S (stereo not drawn) [ISOTIQUIMIDE] | > 20 | > 20
19 | CCC(=O)C(CC(C)N1CCOCC1)(c1ccccc1)c1ccccc1 (stereo not drawn) [PHENADOXONE] | > 20 | > 20
20 | COc1ccc(C(=O)/C=C/c2ccccc2)cc1 [4'-METHOXYCHALCONE] | > 20 | > 20
21 | COc1ccccc1OCC(O)CO (stereo not drawn) [GUAIFENESIN] | > 20 | > 20
22 | CCN1CCN=C1CNC(=O)c1cc(Cl)c(N)cc1OC [LINTOPRIDE] | > 20 | > 20
23 | Cc1cc(CCN2CCN(c3cccc(Cl)c3)CC2)n[nH]1 [MEPIPRAZOLE] | > 20 | > 20
24 | COc1cc(NCc2ccc3nc(N)nc(N)c3c2C)cc(OC)c1OC [TRIMETREXATE] | > 20 | > 20
25 | Cn1c(=O)c2c(ncn2CCN2CCC(C(=O)c3ccc(F)cc3)CC2)n(C)c1=O [FLUFYLLINE] | > 20 | > 20
26 | CCC(C(=O)OCCOCCN(CC)CC)c1ccccc1 (stereo not drawn) [BUTAMIRATE] | > 20 | > 20
27 | CC[C@H](C)[C@H](N)C1=N[C@H](C(=O)N[C@@H](CC(C)C)C(=O)N[C@H](CCC(=O)O)C(=O)N[C@H](C(=O)N[C@H]2CCCCNC(=O)[C@H](CC(N)=O)NC(=O)[C@@H](CC(=O)O)NC(=O)[C@H](Cc3cnc[nH]3)NC(=O)[C@@H](Cc3ccccc3)NC(=O)[C@H]([C@@H](C)CC)NC(=O)[C@@H](CCCN)NC2=O)[C@@H](C)CC)CS1 [BACITRACIN] ({Ileψ(thiazoline)Cys}-L[dE]IK[dOrn]I[dF]H[dD]N; lactam 4-C) | > 20 | > 20
28 | C[C@@H](CO)NC(=O)[C@@H]1C=C2c3cccc4[nH]cc(c34)C[C@H]2N(C)C1 [ERGONOVINE] | > 20 | > 20
29 | CC(C)(C)CC(=O)OCC(=O)[C@@]12OC(C)(C)O[C@@H]1C[C@H]1[C@@H]3CCC4=CC(=O)C=C[C@]4(C)[C@@]3(F)[C@@H](O)C[C@@]12C [TRIAMCINOLONE HEXACETONIDE] | > 20 | > 20
30 | C#C[C@]1(OC(C)=O)CC[C@H]2[C@@H]3CCC4=CC(=O)CC[C@@H]4[C@H]3CC[C@@]21C [NORETHINDRONE ACETATE] | > 20 | > 20
31 | Oc1ccc(Cl)cc1Cc1cc(Cl)ccc1O [DICHLOROPHEN] | > 20 | > 20
32 | C[N+]1(C)CCCC(OC(=O)C(O)(c2ccccc2)c2ccccc2)C1 (stereo not drawn) [MEPENZOLATE] | > 20 | > 20
33 | NCCCNc1ccc2c3c(nn2CCNCCO)-c2c(O)ccc(O)c2C(=O)c13 [PIROXANTRONE] | > 20 | > 20
34 | COc1ccc2c(c1)CC[C@H](CN(C)CC(=O)O)[C@@H]2c1ccccc1 [ORG-25935] | > 20 | > 20

From ChEMBL document CHEMBL4651402, “Screening of ~5500 FDA-approved drugs and clinical candidates for anti-SARS-CoV-2 activity” (2021)
